Key:
Assay type in all cases: in vivo, human
[1] = test system: patients in need thereof (erectile function); experiment: Two randomized, double-blinded placebo controlled studies, daily and on demand dosing (Example 6)
Experimental: In two randomized, double-blinded placebo controlled studies, the compound of structural formula (I), at a range of doses in both daily dosing and for on demand therapy for sexual encounters and intercourse in the home setting, was administered to patients in need thereof.
Erectile function was assessed by the International Index of Erectile Function (IIEF) (Rosen et al., Urology, 49, pp. 822-830 (1997)), diaries of sexual attempts, and a global satisfaction question.

[2] = test system: clinical study subjects; experiment: Combined clinical studies, treatment-emergent adverse events
Text: However, it also was observed from the combined clinical studies that the percent of treatment-emergent adverse events increased with an increasing unit dose of the compound of structural formula (I), as illustrated in the following table.

[3] = test system: male erectile dysfunction; experiment: Combined clinical studies, IIEF erectile function domain
[4] = test system: men with mild to severe erectile dysfunction; experiment: Randomized, double-blind, placebo-controlled on demand study in male erectile dysfunction (Example 7); details: for patients who rated their ability to maintain an erection (IIEF Question 4) during intercourse as almost always or always / patients who rated their penetration ability (IIEF Question 3) as almost always or always: at endpoint
Experimental: A third clinical study was a randomized, double-blind, placebo-controlled study using a compound of structural formula (I) (Study Drug) administered “on demand” to patients with male erectile dysfunction. The Study Drug was administered over a period of eight weeks in the treatment of male erectile dysfunction (ED). Erectile dysfunction (ED) is defined as the persistent inability to attain and/or maintain an erection adequate to permit satisfactory sexual performance. “On demand” dosing is defined as intermittent administration of Study Drug prior to expected sexual activity. The study population consisted of 212 men, at least 18 years of age, with mild to severe erectile dysfunction. The Study Drug was orally administered as tablets of coprecipitate made in accordance with Butler U.S. Pat. No. 5,985,326. […] Treatment with all nitrates, azole antifungals (e.g., ketoconazole or itraconazole), warfarin, erythromycin, or antiandrogens was not allowed at any time during the study. No other approved or experimental medications, treatments, or devices used to treat ED were allowed. Forty-one subjects were administered a placebo. The two primary efficacy variables were the ability of a subject to penetrate their partner and their ability to maintain an erection during intercourse, as measured by the International Index of Erectile Function (IIEF). The IIEF Questionnaire contains fifteen questions, and is a brief, reliable measure of erectile function. See R. C. Rosen et al., Urology, 49, pp. 822-830 (1997). Secondary efficacy variables were IIEF domain scores for erectile function, orgasmic function, sexual desire, intercourse satisfaction, and overall satisfaction; the patient's ability to achieve an erection, ability to insert their penis into their partner's vagina, completion of intercourse with ejaculation, satisfaction with the hardness of their erection, and overall satisfaction, all as measured by the Sexual Encounter Profile (SEP) diary; and a global assessment question asked at the end of the treatment period. The SEP is a patient diary instrument documenting each sexual encounter during the course of the study. The safety analysis of the study included all enrolled subjects, and was assessed by evaluating all reported adverse events, and changes in clinical laboratory values, vital signs, physical examination results, and electrocardiogram results.

[5] = unit dose of about 1 to about 20 mg
[6] = 2 to 25 mg on demand, eight weeks

SMILES: CN1CC(=O)N2[C@H](c3ccc4c(c3)OCO4)c3[nH]c4ccccc4c3C[C@@H]2C1=O [Compound 5, (6R-trans)-6-(1,3-benzodioxol-5-yl)-2,3,6,7,12,12a-hexahydro-2-methylpyrazino[1′,2′:1,6]pyrido[3,4-b]indole-1,4-dione]
- efficacy ([1]; 10 mg dose): fully efficacious
- side effects ([1]; 10 mg dose): minimal side effects (no flushing and no reports of blue vision)
- efficacy ([1]; doses from 5 to 20 mg): efficacious
- flushing ([1]; doses from 5 to 20 mg): no flushing
- vision abnormalities ([1]; doses from 5 to 20 mg): no reports of vision abnormalities
- erectile function as assessed by all endpoints (IIEF, diaries of sexual attempts, global satisfaction question) ([1]; in vivo): significantly improved erectile function
- erectile function ([1]; on demand and daily dose regimens, doses between 1 and 20 mg): significantly improved erectile function
- Treatment-Emergent Adverse Events (%): Back Pain ([2]; unit dose 2 mg): 3%
- Treatment-Emergent Adverse Events (%): Conjunctivitis ([2]; unit dose 2 mg): 0%
- Treatment-Emergent Adverse Events (%): Dyspepsia ([2]; unit dose 2 mg): 3%
- Treatment-Emergent Adverse Events (%): Eyelid Edema ([2]; unit dose 2 mg): 0%
- Treatment-Emergent Adverse Events (%): Flushing ([2]; unit dose 2 mg): 0%
- Treatment-Emergent Adverse Events (%): Headache ([2]; unit dose 2 mg): 12%
- Treatment-Emergent Adverse Events (%): Myalgia ([2]; unit dose 2 mg): 0%
- Treatment-Emergent Adverse Events (%): Rhinitis ([2]; unit dose 2 mg): 7%
- Treatment-Emergent Adverse Events (%): Vision Abnormalities ([2]; unit dose 2 mg): 0%
- Treatment-Emergent Adverse Events (%): Back Pain ([2]; unit dose 5 mg): 3%
- Treatment-Emergent Adverse Events (%): Conjunctivitis ([2]; unit dose 5 mg): 1%
- Treatment-Emergent Adverse Events (%): Dyspepsia ([2]; unit dose 5 mg): 14%
- Treatment-Emergent Adverse Events (%): Eyelid Edema ([2]; unit dose 5 mg): 0%
- Treatment-Emergent Adverse Events (%): Flushing ([2]; unit dose 5 mg): 0%
- Treatment-Emergent Adverse Events (%): Headache ([2]; unit dose 5 mg): 10%
- Treatment-Emergent Adverse Events (%): Myalgia ([2]; unit dose 5 mg): 3%
- Treatment-Emergent Adverse Events (%): Rhinitis ([2]; unit dose 5 mg): 3%
- Treatment-Emergent Adverse Events (%): Vision Abnormalities ([2]; unit dose 5 mg): 0%
- Treatment-Emergent Adverse Events (%): Back Pain ([2]; unit dose 10 mg): 15%
- Treatment-Emergent Adverse Events (%): Conjunctivitis ([2]; unit dose 10 mg): 1%
- Treatment-Emergent Adverse Events (%): Dyspepsia ([2]; unit dose 10 mg): 13%
- Treatment-Emergent Adverse Events (%): Eyelid Edema ([2]; unit dose 10 mg): 1%
- Treatment-Emergent Adverse Events (%): Flushing ([2]; unit dose 10 mg): <1%
- Treatment-Emergent Adverse Events (%): Headache ([2]; unit dose 10 mg): 23%
- Treatment-Emergent Adverse Events (%): Myalgia ([2]; unit dose 10 mg): 9%
- Treatment-Emergent Adverse Events (%): Rhinitis ([2]; unit dose 10 mg): 4%
- Treatment-Emergent Adverse Events (%): Vision Abnormalities ([2]; unit dose 10 mg): 0%
- Treatment-Emergent Adverse Events (%): Back Pain ([2]; unit dose 25 mg): 18%
- Treatment-Emergent Adverse Events (%): Conjunctivitis ([2]; unit dose 25 mg): 0%
- Treatment-Emergent Adverse Events (%): Dyspepsia ([2]; unit dose 25 mg): 19%
- Treatment-Emergent Adverse Events (%): Eyelid Edema ([2]; unit dose 25 mg): 1%
- Treatment-Emergent Adverse Events (%): Flushing ([2]; unit dose 25 mg): 0%
- Treatment-Emergent Adverse Events (%): Headache ([2]; unit dose 25 mg): 29%
- Treatment-Emergent Adverse Events (%): Myalgia ([2]; unit dose 25 mg): 16%
- Treatment-Emergent Adverse Events (%): Rhinitis ([2]; unit dose 25 mg): 4%
- Treatment-Emergent Adverse Events (%): Vision Abnormalities ([2]; unit dose 25 mg): 0%
- Treatment-Emergent Adverse Events (%): Back Pain ([2]; unit dose 50 mg): 24%
- Treatment-Emergent Adverse Events (%): Conjunctivitis ([2]; unit dose 50 mg): 2%
- Treatment-Emergent Adverse Events (%): Dyspepsia ([2]; unit dose 50 mg): 20%
- Treatment-Emergent Adverse Events (%): Eyelid Edema ([2]; unit dose 50 mg): 2%
- Treatment-Emergent Adverse Events (%): Flushing ([2]; unit dose 50 mg): 3%
- Treatment-Emergent Adverse Events (%): Headache ([2]; unit dose 50 mg): 34%
- Treatment-Emergent Adverse Events (%): Myalgia ([2]; unit dose 50 mg): 20%
- Treatment-Emergent Adverse Events (%): Rhinitis ([2]; unit dose 50 mg): 0%
- Treatment-Emergent Adverse Events (%): Vision Abnormalities ([2]; unit dose 50 mg): 0%
- Treatment-Emergent Adverse Events (%): Back Pain ([2]; unit dose 100 mg): 22%
- Treatment-Emergent Adverse Events (%): Conjunctivitis ([2]; unit dose 100 mg): 5%
- Treatment-Emergent Adverse Events (%): Dyspepsia ([2]; unit dose 100 mg): 25%
- Treatment-Emergent Adverse Events (%): Eyelid Edema ([2]; unit dose 100 mg): 3%
- Treatment-Emergent Adverse Events (%): Flushing ([2]; unit dose 100 mg): 7%
- Treatment-Emergent Adverse Events (%): Headache ([2]; unit dose 100 mg): 46%
- Treatment-Emergent Adverse Events (%): Myalgia ([2]; unit dose 100 mg): 29%
- Treatment-Emergent Adverse Events (%): Rhinitis ([2]; unit dose 100 mg): 2%
- Treatment-Emergent Adverse Events (%): Vision Abnormalities ([2]; unit dose 100 mg): 0%
- flushing [2, 5]: flushing was essentially eliminated
- vision abnormalities [2, 5]: no vision abnormalities were reported
- treatment of male erectile dysfunction ([3]; combined results from clinical studies): effectively treats male erectile dysfunction
- IIEF erectile function domain (change from baseline), Mean ± SD ([3]; unit dose 2 mg): 3.9 ± 6.1
- IIEF erectile function domain (change from baseline), Mean ± SD ([3]; unit dose 5 mg): 6.6 ± 7.1
- IIEF erectile function domain (change from baseline), Mean ± SD ([3]; unit dose 10 mg): 7.9 ± 6.7
- IIEF erectile function domain (change from baseline), Mean ± SD ([3]; unit dose 25 mg): 9.4 ± 7.0
- IIEF erectile function domain (change from baseline), Mean ± SD ([3]; unit dose 50 mg): 9.8 ± 5.5
- IIEF erectile function domain (change from baseline), Mean ± SD ([3]; unit dose 100 mg): 8.4 ± 6.1
- patients who rated their ability to maintain an erection (IIEF Question 4) during intercourse as almost always or always ([4]; 2 mg group): 19.5%
- patients who rated their penetration ability (IIEF Question 3) as almost always or always ([4]; 2 mg group): 38.1%
- sexual performance of men with erectile dysfunction (IIEF, patient diaries, global assessment) ([4]; 2 mg, 5 mg, 10 mg and 25 mg taken on demand): significant improvement, relative to placebo
- patients who rated their ability to maintain an erection (IIEF Question 4) during intercourse as almost always or always ([4]; 5 mg group): 32.6%
- patients who rated their penetration ability (IIEF Question 3) as almost always or always ([4]; 5 mg group): 48.8%
- patients who rated their ability to maintain an erection (IIEF Question 4) during intercourse as almost always or always ([4]; 10 mg group): 39.0%
- patients who rated their penetration ability (IIEF Question 3) as almost always or always ([4]; 10 mg group): 51.2%
- patients who rated their ability to maintain an erection (IIEF Question 4) during intercourse as almost always or always ([4]; 25 mg group): 69.0%
- patients who rated their penetration ability (IIEF Question 3) as almost always or always ([4]; 25 mg group): 83.7%
- adverse events related to color vision disturbances [4, 6]: no adverse events related to color vision disturbances were reported
- severity of adverse events [4, 6]: mild or moderate in severity
- change in penetration ability versus placebo (IIEF Question 3) ([4]; all dose levels (2, 5, 10, 25 mg)): statistically significant differences
- change in penetration ability versus placebo (comparison reported for IIEF Question 4) ([4]; the three higher dose levels): statistically significant differences

— patent publication US6451807B1, “Methods of treating sexual dysfunction in an individual suffering from a retinal disease, class 1 congestive heart failure, or myocardial infarction using a PDE5 inhibitor” (Lilly Icos, LLC., priority 1999, dated 2002)
